ChEMBL document CHEMBL1151024, “Synthesis and cardiotonic activity of 2,9-dihydro-6-(5-methyl-3-oxo-2,3,4,5-tetrahydropyridazin-6-yl)pyrazolo[4,3-b][1,4]benzoxazine” (Bioorg Med Chem Lett, 1993)
≈ marks a conversion by molar mass, not a printed value.

Legend:
Canis familiaris [1] = assay: The mean arterial blood pressure drop after administration was determined; assay type: functional, Canis lupus familiaris
Canis familiaris [2] = organism: Canis familiaris; assay: The differential (dp/dt) maximal rise in blood pressure with respect to time was evaluated; assay type: functional, Canis lupus familiaris
Canis familiaris [3] = assay: Maximum increase in cardiac force at 75 ug/Kg was observed in an anesthetized dog model(iv); assay type: functional, Canis lupus familiaris
Canis familiaris [4] = assay: Tested for effective dose required to produce cardiotonic activity after intravenous administration in anesthetized dog model; assay type: functional; conditions: Canis lupus familiaris
[5] = Solubility in 1 M HCl; assay type: physicochemical; conditions: read-out: S
Canis familiaris [6] = assay: The high peak activity was evaluated at a dose of 35 ug/kg intravenously in dog; assay type: functional, Canis lupus familiaris
[7] = Solubility in 1 M HCl; compound is insoluble; assay type: physicochemical; conditions: buffer

With `CC1CC(=O)NN=C1c1ccc2c(c1)Oc1cn[nH]c1N2` (centres undefined) the “Decrease in blood pressure” value (Canis familiaris [1]) was 21%, the Change (Canis familiaris [2]) was 119% and the Increase (Canis familiaris [3]) was 256%. It also gave an ED50 (Canis familiaris [4]) of 0.015 mg/kg and a solubility [5] of 300 µg/mL (≈ 1060 µM).

In the case of `CC1CC(=O)NN=C1c1ccc2c(c1)OCC(=O)N2` (centres undefined) [BEMORADAN], the Activity (Canis familiaris [6]) is reported as 200, the Increase (Canis familiaris [3]) is reported as 127% and the S [7] is reported as “Insoluble”. For the same compound, the ED50 (Canis familiaris [4]) was 0.0054 mg/kg.
